In PubChem BioAssay (NCI):
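Cultured in 96-well plates, cells were exposed to test compound for 48 hours across five concentrations. TGI denotes the concentration required for complete inhibition of growth.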

What was measured:
Experiment in all cases: growth of human tumour cells (NCI), 48 h
CCRF-CEM leukemia = test system: CCRF-CEM leukemia
NCI-H23 lung = test system: NCI-H23 lung
COLO 205 colon = test system: COLO 205 colon
SF-268 CNS = test system: SF-268 CNS
SNB-75 CNS = test system: SNB-75 CNS
SK-MEL-2 melanoma = test system: SK-MEL-2 melanoma
SF-295 CNS = test system: SF-295 CNS
NCI-H522 lung = test system: NCI-H522 lung
HCC-2998 colon = test system: HCC-2998 colon
HL-60(TB) leukemia = test system: HL-60(TB) leukemia
LOX IMVI melanoma = test system: LOX IMVI melanoma

| SMILES | TGI (CCRF-CEM leukemia) [µM] | TGI (NCI-H23 lung) [µM] | TGI (COLO 205 colon) [µM] | TGI (SF-268 CNS) [µM] | TGI (SNB-75 CNS) [µM] | TGI (SK-MEL-2 melanoma) [µM] | TGI (SF-295 CNS) [µM] | TGI (NCI-H522 lung) [µM] | TGI (HCC-2998 colon) [µM] | TGI (HL-60(TB) leukemia) [µM] | TGI (LOX IMVI melanoma) [µM] |
| --- | --- | --- | --- | --- | --- | --- | --- | --- | --- | --- | --- |
| COC(=O)[C@H](Cc1ccccc1)NC(=O)c1ccc(CNC(=O)/C=C/c2ccc(OCc3ccccc3)cc2)cc1 | > 100 | 33.5 | > 100 | 28.1 | 31.6 | 7.92 | 35.7 | > 100 | > 100 | 11.8 | > 100 |
| COc1cc(C2C=C(c3ccccc3)Oc3cc4c(cc32)OCO4)cc(OC)c1OC (configuration not stated) | > 100 | > 27 | > 17.1 | > 100 | > 90.8 | > 81.1 | > 16.9 | – | > 100 | > 34.3 | > 54.8 |
| CN(C)CCNc1ccc2ncn3c4ccc(O)cc4c(=O)c1c23 | 15.3 | 10.9 | 9.32 | 10.7 | 10.2 | 13 | 14 | 5.68 | 12.7 | 13.6 | 3.36 |
| COC(=O)C1=CO[C@@H](C)[C@@H]2Cn3ccc4c5ccccc5nc-4c3C[C@H]12 | > 100 | > 100 | > 100 | > 100 | > 100 | > 100 | > 100 | > 100 | – | – | > 100 |
| COC(=O)c1ccc(NCc2cc(OC)ccc2OC)cc1 | > 100 | > 100 | > 100 | > 100 | > 100 | > 100 | – | > 100 | > 100 | > 100 | > 100 |
| COC1OC2COC1(OCc1ccccc1)C1OC(C)(C)OC21 (configuration not stated) | > 100 | > 100 | > 100 | > 100 | > 100 | > 100 | > 100 | > 100 | > 100 | – | – |
| Cn1c(-c2ccc(C=O)o2)ccc1-c1ccc(C=O)o1 | > 100 | > 100 | > 100 | – | > 100 | > 100 | > 100 | – | > 100 | 46 | > 100 |
| COc1ccc(/[N+]([O-])=C/c2ccc(OC(=S)S)c(OC)c2)cc1 | – | > 100 | > 100 | > 100 | 51.1 | > 100 | > 100 | > 100 | > 100 | 53.4 | > 100 |
| Cc1cc(N(CCC#N)CCC#N)ccc1/C(N=Nc1ccc([N+](=O)[O-])cc1)=N\NC(=O)c1cc(Cl)ccc1O | > 100 | 39.1 | 54.2 | 91.3 | > 100 | > 100 | > 100 | 23.9 | 46.2 | – | – |
| COc1ccc(N2C(=O)C3CC(c4ccc(Br)cc4)c4c([nH]c5ccccc45)C3C2=O)cc1 (configuration not stated) | > 100 | 28.5 | 34.8 | 23.4 | 22.5 | > 100 | 24.3 | – | – | > 100 | 16.3 |
| Cc1ccc2c(c1)nc1n2C(c2c(F)cccc2F)SC1 (configuration not stated) | > 100 | > 100 | > 100 | > 100 | > 100 | 48.2 | > 100 | > 100 | > 100 | – | > 100 |
